Laboratory results reported in US20090022729A1, “METHODS AND COMPOSITIONS FOR TREATING CARDIAC DYSFUNCTIONS” (priority 2007, published 2009).

How the values were obtained:
thrombin [1] = biological target: T1, thrombin (Mus musculus, UniProt P19221); experiment: short-term cardiac I/R injury model (30 minutes of ischemia and 2 hours of reperfusion); format: in vivo; details: WT mice, hirudin vs saline, FIG. 1A
T1 construct: from tissue; host or cells: wild-type mice in vivo (blood / injured myocardium)
Experimental: Cardiac I/R injury models. For the short-term I/R model (30 minutes of ischemia and 2 hours of reperfusion), the surgical protocol and infarct size determination were performed as described in Palazzo et al. (Am. J. Physiol. 275:H2300-H2307 (1998)) with some modifications. Briefly, intraperitoneal injection of pentobarbital (100 mg/kg) (Abbott Laboratories, Abbott Park, Ill.) was used for anesthesia. Mice were orally intubated to provide artificial ventilation (0.3 mL tidal volume, 120 breaths/minute). The left anterior descending coronary artery was occluded with a 7-0 silk suture (U.S. Surgical Corp., Norwalk, Conn.) passed through PE tubing (U.S. Surgical Corp.) to make a Rumel snare. After 30 minutes of ischemia, the snare was released and the heart was reperfused for 2 hours. Finally, the artery was reoccluded and 4% Evans Blue dye was injected into the aortic root to delineate the area-at-risk (AAR) from not at-risk myocardium (blue). […] The LV, AAR and infarct areas were traced and calculated by computer planimetry (Image J, version 1.21). Infarct volumes were calculated as: [(A1×W1)+(A2×W2)+(A3×W3)+(A4×W4)+(A5×W5)], where A is the area of infarct for the slice denoted by the subscript and W is the weight of the respective section.

thrombin [2] = biological target: thrombin (Homo sapiens, UniProt P00734); details: cited from earlier work
PAR4 = biological target: T2, PAR4 (Homo sapiens, UniProt Q96RI0); details: cited from earlier work
T2 sequence (Q96RI0 18-385): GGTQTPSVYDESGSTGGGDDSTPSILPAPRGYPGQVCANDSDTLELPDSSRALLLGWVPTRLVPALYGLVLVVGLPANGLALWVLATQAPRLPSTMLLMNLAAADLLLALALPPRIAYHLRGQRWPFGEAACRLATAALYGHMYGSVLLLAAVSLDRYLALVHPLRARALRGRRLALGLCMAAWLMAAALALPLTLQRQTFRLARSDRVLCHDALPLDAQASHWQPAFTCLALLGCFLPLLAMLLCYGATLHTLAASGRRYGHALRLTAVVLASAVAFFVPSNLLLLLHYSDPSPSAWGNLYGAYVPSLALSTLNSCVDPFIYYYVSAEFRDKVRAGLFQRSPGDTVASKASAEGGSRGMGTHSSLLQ

PAR-1 [3] = biological target: T3, PAR-1 (Homo sapiens, UniProt P25116); details: cited from earlier work
T3 sequence (P25116 22-425): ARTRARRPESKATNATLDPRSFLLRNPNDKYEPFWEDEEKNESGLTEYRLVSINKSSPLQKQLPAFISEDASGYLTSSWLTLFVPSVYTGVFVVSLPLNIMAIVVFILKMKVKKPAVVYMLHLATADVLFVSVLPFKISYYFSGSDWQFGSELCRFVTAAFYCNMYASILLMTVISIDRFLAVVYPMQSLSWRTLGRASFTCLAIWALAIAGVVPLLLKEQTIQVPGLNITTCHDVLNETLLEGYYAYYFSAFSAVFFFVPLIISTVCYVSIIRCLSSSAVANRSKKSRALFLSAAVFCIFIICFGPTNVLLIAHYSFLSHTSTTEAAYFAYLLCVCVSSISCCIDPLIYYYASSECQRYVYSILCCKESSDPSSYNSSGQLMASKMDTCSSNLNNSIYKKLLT

PAR3 = biological target: T4, PAR3 (Homo sapiens, UniProt O00254); details: cited from earlier work
T4 sequence (O00254 22-374): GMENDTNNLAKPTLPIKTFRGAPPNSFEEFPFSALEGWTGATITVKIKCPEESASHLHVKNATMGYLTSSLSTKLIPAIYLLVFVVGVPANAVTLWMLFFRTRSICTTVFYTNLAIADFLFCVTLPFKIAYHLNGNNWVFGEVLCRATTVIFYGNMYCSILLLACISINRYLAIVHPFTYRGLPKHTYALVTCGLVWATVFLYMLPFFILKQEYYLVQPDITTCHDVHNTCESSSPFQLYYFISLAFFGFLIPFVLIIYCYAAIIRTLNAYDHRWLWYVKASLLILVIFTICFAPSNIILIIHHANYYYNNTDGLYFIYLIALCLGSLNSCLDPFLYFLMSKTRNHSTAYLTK

PAR2 = biological target: T5, PAR2 (Homo sapiens, UniProt P55085); details: cited from earlier work
T5 sequence (P55085 26-397): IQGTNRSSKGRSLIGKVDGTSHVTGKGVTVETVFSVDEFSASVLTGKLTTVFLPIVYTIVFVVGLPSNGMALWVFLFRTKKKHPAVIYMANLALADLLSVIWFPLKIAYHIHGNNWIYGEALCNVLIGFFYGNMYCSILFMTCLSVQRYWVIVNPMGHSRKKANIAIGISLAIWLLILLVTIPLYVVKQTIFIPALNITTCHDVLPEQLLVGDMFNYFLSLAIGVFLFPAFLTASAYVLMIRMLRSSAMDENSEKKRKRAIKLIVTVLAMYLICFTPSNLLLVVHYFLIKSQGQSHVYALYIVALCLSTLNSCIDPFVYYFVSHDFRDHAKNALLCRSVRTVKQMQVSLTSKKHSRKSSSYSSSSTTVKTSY

PAR-1 [4] = biological target: T3, PAR-1; details: cited from earlier work; remark: listed apart in the source

hirudin
infarct size (thrombin [1]): decreased
size of the area at-risk (thrombin [1]): Neither hirudin treatment nor PAR1 deficiency affected

NCC[C@H](NC(=O)[C@H](Cc1ccc(F)c(F)c1)NC(=O)Nc1ccc2c(CN3CCCC3)cn(Cc3c(Cl)cccc3Cl)c2c1)C(=O)NCc1ccccc1 [RWJ-56110, (αS)—N-[(1S)-3-amino-1-[[(phenylmethyl)amino]carbonyl]propyl]-α-[[[[[1-(2,6-dichlorophenyl)methyl]-3-(1-pyrrolidinylmethyl)-1H-indol-6-yl]amino]carbonyl]amino]-3,4-difluorobenzenepropanamide]
inhibition of thrombin activity (thrombin [2]): does not affect PAR2, PAR3, or PAR4 or inhibit thrombin activity
effect on PAR4 (PAR4): does not affect
PAR1 antagonist activity and selectivity (PAR-1 [3]): potent, selective PAR-1 antagonist
effect on PAR3 (PAR3): does not affect
effect on PAR2 (PAR2): does not affect
calcium mobilization (PAR-1 [4]): interferes with calcium mobilization
